Columns and labels:
[1] = test system: patients with brain metastasis; test: Clinical trial: cognitive function in brain metastasis patients under fractionated radiation, xenon versus air; format: in vivo, human; conditions: vs air
Protocol: (§1) A clinical trial is conducted in 20 patients with brain metastasis who receive 2 Gy to 100 Gy fractionated over 2-8 weeks. 10 patients are treated with 10-20 liters of 30% xenon every other day during radiation exposure. An additional 10 patients are treated with similar radiation regimen and administered 10-20 liters of air every other day during radiation exposure. […] Furthermore, verbal memory, as measured by the Hopkins Verbal Learning Test-Revised (HVLT-R), Cognitive flexibility as measured with the Controlled Oral Word Association (COWA), Word Fluency has measured with the Controlled Oral Word Association (COWA), Working memory has measured with the Wechsler Adult Intelligence Scale—Digit Span, Processing speed has measured with the Wechsler Adult Intelligence Scale—Digit Symbol, Motor dexterity has measured with the Grooved Pegboard (GP), Functional assessment, as measured by the Functional Assessment of Cancer Therapy-Brain (FACT-Br), all improved in the xenon treated group.

tumor growth = test: Clinical trial: tumor growth in brain metastasis patients receiving xenon versus air controls; format: in vivo, human; conditions: patients receiving xenon as compared to air controls
Protocol: as §1

[2] = 10-20 liters of 30% xenon every other day during radiation exposure

[Xe] [xenon]
preservation in cognitive function: cognitive function as measured by HVLT-R Total Recall score (verbal learning and memory test) ([1]; 10-20 liters of 30% xenon every other day during radiation exposure (2 Gy to 100 Gy fractionated over 2-8 weeks), at 3, 8, 12, and 24 weeks)
No acceleration of tumor growth: acceleration of tumor growth (tumor growth)
improved: Cognitive flexibility as measured with the Controlled Oral Word Association (COWA) [1, 2] | Functional assessment, as measured by the Functional Assessment of Cancer Therapy-Brain (FACT-Br) [1, 2] | Motor dexterity measured with the Grooved Pegboard (GP) [1, 2] | Processing speed measured with the Wechsler Adult Intelligence Scale—Digit Symbol [1, 2] | Word Fluency measured with the Controlled Oral Word Association (COWA) [1, 2] | Working memory measured with the Wechsler Adult Intelligence Scale—Digit Span [1, 2] | verbal memory, as measured by the Hopkins Verbal Learning Test-Revised (HVLT-R) [1, 2]
